# Structures can show the parent of a compound that is named as a salt.
row,melting point,SMILES
1,75 °C,"O=c1c(Cc2ccccc2)cc2cnc(NC3CCNCC3)nc2n1C1CCCC1 [Example 46, 6-Benzyl-8-cyclopentyl-2-(piperidin-4-ylamino)-8H-pyrido[2,3-d]pyrimidin-7-one]"
2,186 to 188 °C,"O=c1c(Cc2ccccc2)cc2cnc(NCc3ccccc3)nc2n1C1CCCC1 [Example 43, 6-Benzyl-2-benzylamino-8-cyclopentyl-8H-pyrido[2,3-d]pyrimidin-7-one]"
3,149 to 151 °C,"CCCN1CCC(Nc2ncc3cc(Cc4ccccc4C)c(=O)n(C4CCCC4)c3n2)CC1 [Example 60, 8-Cyclopentyl-6-(2-methyl-benzyl)-2-(1-propyl-piperidin-4-ylamino)-8H-pyrido[2,3-d]pyrimidin-7-one]"
4,143 to 145 °C,"CCCN1CCC(Nc2ncc3cc(Cc4ccccc4)c(=O)n(C4CCCC4)c3n2)CC1 [Example 45, 6-Benzyl-8-cyclopentyl-2-(1-propyl-piperidin-4-ylamino)-8H-pyrido[2,3-d]pyrimidin-7-one]"
5,175 to 181 °C,"CCc1ccc(Cc2cc3cnc(NC4CCC(N(C)C)CC4)nc3n(C3CCCC3)c2=O)cc1 (stereo not drawn) [Example 67, 8-Cyclopentyl-2-(4-dimethylamino-cyclohexylamino)-6-(4-ethyl-benzyl)-8H-pyrido[2,3-d]pyrimidin-7-one]"
6,138 to 140 °C,"O=c1c(Cc2ccccn2)cc2cnc(NC3CCNCC3)nc2n1C1CCCC1 (as salt: TFA) [Example 26, 8-Cyclopentyl-2-(piperidin-4-ylamino)-6-pyridin-2-ylmethyl-8H-pyrido[2,3-d]pyrimidin-7-one]"
7,154 to 157 °C,"CN(C)C1CCC(Nc2ncc3cc(Cc4nccs4)c(=O)n(C4CCCC4)c3n2)CC1 (stereo not drawn) [Example 87, 8-Cyclopentyl-2-(4-dimethylamino-cyclohexylamino)-6-thiazol-2-ylmethyl-8H-pyrido[2,3-d]pyrimidin-7-one]"
8,185 °C (dec.),"Cc1c(C(O)c2ccccc2)c(=O)n(C2CCCC2)c2nc(Nc3ccc(N4CCNCC4)cc3)ncc12 (stereo not drawn) [Example 31, 8-Cyclopentyl-6-(hydroxy-phenyl-methyl)-5-methyl-2-(4-piperazin-1-yl-phenylamino)-8H-pyrido[2,3-d]pyrimidin-7-one]"
9,175 °C,"CCc1ccc(Cc2cc3cnc(Nc4ccc(N5CCNCC5)cc4)nc3n(C3CCCC3)c2=O)cc1 [Example 71, 8-Cyclopentyl-6-(4-ethyl-benzyl)-2-(4-piperazin-1-yl-phenylamino)-8H-pyrido[2,3-d]pyrimidin-7-one]"
10,178 to 183 °C,"Cc1ccccc1Cc1cc2cnc(NC3CCC(N(C)C)CC3)nc2n(C2CCCC2)c1=O (stereo not drawn) [Example 64, 8-Cyclopentyl-2-(4-dimethylamino-cyclohexylamino)-6-(2-methyl-benzyl)-8H-pyrido[2,3-d]pyrimidin-7-one]"
11,< 60 °C,"CN(CCO)c1ncc2cc(Cc3ccccc3)c(=O)n(C3CCCC3)c2n1 [Example 48, 6-Benzyl-8-cyclopentyl-2-[(2-hydroxy-ethyl)-methyl-amino]-8H-pyrido[2,3-d]pyrimidin-7-one]"
12,161 to 163 °C,"O=c1c(Cc2ccccc2)cc2cnc(Nc3ccccc3)nc2n1C1CCCC1 [Example 44, 6-Benzyl-8-cyclopentyl-2-phenylamino-8H-pyrido[2,3-d]pyrimidin-7-one]"
13,243 to 245 °C,"CS(=O)(=O)N1CCC(Nc2ncc3cc(Cc4ccccc4)c(=O)n(C4CCCC4)c3n2)CC1 [Example 54, 6-Benzyl-8-cyclopentyl-2-(1-methanesulfonyl-piperidin-4-ylamino)-8H-pyrido[2,3-d]pyrimidin-7-one]"
14,220 to 223 °C,"CS(=O)(=O)N1CCC(Nc2ncc3cc(Cc4ccccn4)c(=O)n(C4CCCC4)c3n2)CC1 [Example 27, 8-Cyclopentyl-2-(1-methanesulfonyl-piperidin-4-ylamino)-6-pyridin-2-ylmethyl-8H-pyrido[2,3-d]pyrimidin-7-one]"
15,114 to 116 °C,"Cc1ccc(Cc2cc3cnc(NCCCN4CCOCC4)nc3n(C3CCCC3)c2=O)cc1 [Example 76, 8-Cyclopentyl-6-(4-methyl-benzyl)-2-(3-morpholin-4-yl-propylamino)-8H-pyrido[2,3-d]pyrimidin-7-one]"
16,123 to 124 °C,"Cc1ccc(Cc2cc3cnc(NCCCN4CCN(C)CC4)nc3n(C3CCCC3)c2=O)cc1 [Example 78, 8-Cyclopentyl-6-(4-methyl-benzyl)-2-[3-(4-methyl-piperazin-1-yl)-propylamino]-8H-pyrido[2,3-d]pyrimidin-7-one]"
17,179 to 184 °C,"Cc1ccc(Cc2cc3cnc(NC4CCC(N(C)C)CC4)nc3n(C3CCCC3)c2=O)cc1 (stereo not drawn) [Example 66, 8-Cyclopentyl-2-(4-dimethylamino-cyclohexylamino)-6-(4-methyl-benzyl)-8H-pyrido[2,3-d]pyrimidin-7-one]"
18,200 to 203 °C,"Cc1cccc(Cc2cc3cnc(Nc4ccc(N5CCNCC5)cc4)nc3n(C3CCCC3)c2=O)c1 [Example 70, 8-Cyclopentyl-6-(3-methyl-benzyl)-2-(4-piperazin-1-yl-phenylamino)-8H-pyrido[2,3-d]pyrimidin-7-one]"

row,melting point,SMILES
1,154 to 155 °C,"CCCN1CCC(Nc2ncc3cc(Cc4ccc(C)cc4)c(=O)n(C4CCCC4)c3n2)CC1 [Example 59, 8-Cyclopentyl-6-(4-methyl-benzyl)-2-(1-propyl-piperidin-4-ylamino)-8H-pyrido[2,3-d]pyrimidin-7-one]"
2,289.2 to 290 °C,"Cc1ccc(Cc2cc3cnc(Nc4ccc(N5CCOC5=O)cc4)nc3n(C3CCCC3)c2=O)cc1 [Example 103, 8-Cyclopentyl-6-(4-methyl-benzyl)-2-[4-(2-oxo-oxazolidin-3-yl)-phenylamino]-8H-pyrido[2,3-d]pyrimidin-7-one]"
3,163 to 165 °C,"O=c1c(Cc2ccccc2)cc2cnc(NCCc3cnc[nH]3)nc2n1C1CCCC1 [Example 51, 6-Benzyl-8-cyclopentyl-2-[2-(3H-imidazol-4-yl)-ethylamino]-8H-pyrido[2,3-d]pyrimidin-7-one]"
4,133 to 134 °C,"CCCN1CCC(Nc2ncc3cc(Cc4ccccn4)c(=O)n(C4CCCC4)c3n2)CC1 [Example 88, 8-Cyclopentyl-2-(1-propyl-piperidin-4-ylamino)-6-pyridin-2-ylmethyl-8H-pyrido[2,3-d]pyrimidin-7-one]"
5,210 to 212 °C,"CC(C)S(=O)(=O)N1CCC(Nc2ncc3cc(Cc4ccccc4)c(=O)n(C4CCCC4)c3n2)CC1 [Example 34, 6-Benzyl-8-cyclopentyl-2-[1-(propane-2-sulfonyl)-piperidin-4-ylamino]-8H-pyrido[2,3-d]pyrimidin-7-one]"
6,190 °C (dec.),"Cc1c(C(=O)c2ccccc2)c(=O)n(C2CCCC2)c2nc(Nc3ccc(N4CCNCC4)cc3)ncc12 [Example 32, 6-Benzoyl-8-cyclopentyl-5-methyl-2-(4-piperazin-1-yl-phenylamino)-8H-pyrido[2,3-d]pyrimidin-7-one]"
7,177 to 179 °C,"O=c1c(Cc2ccccc2)cc2cnc(NCCO)nc2n1C1CCCC1 [Example 42, 6-Benzyl-8-cyclopentyl-2-(2-hydroxy-ethylamino)-8H-pyrido[2,3-d]pyrimidin-7-one]"
8,210 °C,"Cc1ccccc1Cc1cc2cnc(Nc3ccc(N4CCNCC4)cc3)nc2n(C2CCCC2)c1=O [Example 69, 8-Cyclopentyl-6-(2-methyl-benzyl)-2-(4-piperazin-1-yl-phenylamino)-8H-pyrido[2,3-d]pyrimidin-7-one]"
9,216 to 219 °C,"CC(C)S(=O)(=O)N1CCC(Nc2ncc3cc(Cc4ccccn4)c(=O)n(C4CCCC4)c3n2)CC1 [Example 35, 8-Cyclopentyl-2-[1-(propane-2-sulfonyl)-piperidin-4-ylamino]-6-pyridin-2-ylmethyl-8H-pyrido[2,3-d]pyrimidin-7-one]"
10,140 to 145 °C,"CC(C)c1ccc(Cc2cc3cnc(Nc4ccc(N5CCNCC5)cc4)nc3n(C3CCCC3)c2=O)cc1 [Example 72, 8-Cyclopentyl-6-(4-isopropyl-benzyl)-2-(4-piperazin-1-yl-phenylamino)-8H-pyrido[2,3-d]pyrimidin-7-one]"
11,182 to 183 °C,"CN1CCN(S(=O)(=O)N2CCC(Nc3ncc4cc(Cc5ccccc5)c(=O)n(C5CCCC5)c4n3)CC2)CC1 [Example 33, 6-Benzyl-8-cyclopentyl-2-[1-(4-methyl-piperazine-1-sulfonyl)-piperidin-4-ylamino]-8H-pyrido[2,3-d]pyrimidin-7-one]"
12,88 to 91 °C,"Cc1ccc(Cc2cc3cnc(NCCN4CCOCC4)nc3n(C3CCCC3)c2=O)cc1 [Example 75, 8-Cyclopentyl-6-(4-methyl-benzyl)-2-(2-morpholin-4-yl-ethylamino)-8H-pyrido[2,3-d]pyrimidin-7-one]"
13,122 to 124 °C,"CN(C)CCCCNc1ncc2cc(Cc3nccs3)c(=O)n(C3CCCC3)c2n1 [Example 90, 8-Cyclopentyl-2-(4-dimethylamino-butylamino)-6-thiazol-2-ylmethyl-8H-pyrido[2,3-d]pyrimidin-7-one]"
14,118 to 120 °C,"CCCN1CCC(Nc2ncc3cc(Cc4cccc(C)c4)c(=O)n(C4CCCC4)c3n2)CC1 [Example 61, 8-Cyclopentyl-6-(3-methyl-benzyl)-2-(1-propyl-piperidin-4-ylamino)-8H-pyrido[2,3-d]pyrimidin-7-one]"
15,156 to 160 °C,"CCCN1CCC(Nc2ncc3cc(Cc4ccc(C(C)C)cc4)c(=O)n(C4CCCC4)c3n2)CC1 [Example 63, 8-Cyclopentyl-6-(4-isopropyl-benzyl)-2-(1-propyl-piperidin-4-ylamino)-8H-pyrido[2,3-d]pyrimidin-7-one]"
16,118 to 119 °C,"Cc1ccccc1Cc1cc2cnc(NCCCN3CCOCC3)nc2n(C2CCCC2)c1=O [Example 74, 8-Cyclopentyl-6-(2-methyl-benzyl)-2-(3-morpholin-4-yl-propylamino)-8H-pyrido[2,3-d]pyrimidin-7-one]"
17,115 to 117 °C,"CN(C)c1ncc2cc(Cc3ccccc3)c(=O)n(C3CCCC3)c2n1 [Example 49, 6-Benzyl-8-cyclopentyl-2-dimethylamino-8H-pyrido[2,3-d]pyrimidin-7-one]"
18,151 to 153 °C,"CCCN1CCC(Nc2ncc3cc(Cc4ccc(CC)cc4)c(=O)n(C4CCCC4)c3n2)CC1 [Example 62, 8-Cyclopentyl-6-(4-ethyl-benzyl)-2-(1-propyl-piperidin-4-ylamino)-8H-pyrido[2,3-d]pyrimidin-one]"
